For test [1], the system named is JAK kinases (JAK1 and JAK3). The test can be described thus: JAK inhibition: IL-4-stimulated CD23 upregulation in human Ramos B-cells, FACS. The format is cell-based. The conditions noted are these: IL-4 stimulated Ramos B-cells, read-out: IC50, inhibition of JAK kinases in cellular assay. How it is done: JAK inhibition was tested in human Ramos B-cells activated with IL-4. Twenty to 24 hours post stimulation, the cells are stained for upregulation of CD23 and analyzed by FACS. Stimulation of the B-cells with IL-4 leads to the activation of the JAK/STAT pathway through phosphorylation of the JAK kinase JAK1 and JAK3, which in turn phosphorylate and activate transcription of factor […].
For the assay, human Ramos B-cells (ATCC, Catalog No. CRL-1596) are cultured in RPMI 1640 medium (Cellgro, Catalog No. 10-040-CM) containing 10% fetal bovine serum (JRH, Catalog No. 12106-500M) according to the propagation protocol supplied with the cells, and maintained at a density of approximately 3.5×10^5 cells/ml. The day before the assay, the cells are diluted to 3.5×10^5 cells/ml to insure they are in the logarithmic growth phase. The cells are spun down, and suspended in RPMI 1640 medium containing 5% fetal bovine serum to a density of 3.5×10^4 cells/ml and aliquots dispensed into a 96-well tissue culture plate. Cells are incubated with test compound (dissolved in DMSO) or DMSO (control) for 1 hr at 37° C. and then stimulated with IL-4 (Pepotech, Catalog No. 200-04) for 20-24 hours (final concentration is 50 Units/ml). Cells are then spun down, stained with anti-CD23-PE antibody (BD Pharmigen, Catalog No. 555711) and analyzed by FACS.

For test [2], the target named is T1, Axl kinase (Homo sapiens, UniProt P30530).
T1 construct: endogenous in cells; host or cells: HeLa cells
T1 sequence (P30530 26-894): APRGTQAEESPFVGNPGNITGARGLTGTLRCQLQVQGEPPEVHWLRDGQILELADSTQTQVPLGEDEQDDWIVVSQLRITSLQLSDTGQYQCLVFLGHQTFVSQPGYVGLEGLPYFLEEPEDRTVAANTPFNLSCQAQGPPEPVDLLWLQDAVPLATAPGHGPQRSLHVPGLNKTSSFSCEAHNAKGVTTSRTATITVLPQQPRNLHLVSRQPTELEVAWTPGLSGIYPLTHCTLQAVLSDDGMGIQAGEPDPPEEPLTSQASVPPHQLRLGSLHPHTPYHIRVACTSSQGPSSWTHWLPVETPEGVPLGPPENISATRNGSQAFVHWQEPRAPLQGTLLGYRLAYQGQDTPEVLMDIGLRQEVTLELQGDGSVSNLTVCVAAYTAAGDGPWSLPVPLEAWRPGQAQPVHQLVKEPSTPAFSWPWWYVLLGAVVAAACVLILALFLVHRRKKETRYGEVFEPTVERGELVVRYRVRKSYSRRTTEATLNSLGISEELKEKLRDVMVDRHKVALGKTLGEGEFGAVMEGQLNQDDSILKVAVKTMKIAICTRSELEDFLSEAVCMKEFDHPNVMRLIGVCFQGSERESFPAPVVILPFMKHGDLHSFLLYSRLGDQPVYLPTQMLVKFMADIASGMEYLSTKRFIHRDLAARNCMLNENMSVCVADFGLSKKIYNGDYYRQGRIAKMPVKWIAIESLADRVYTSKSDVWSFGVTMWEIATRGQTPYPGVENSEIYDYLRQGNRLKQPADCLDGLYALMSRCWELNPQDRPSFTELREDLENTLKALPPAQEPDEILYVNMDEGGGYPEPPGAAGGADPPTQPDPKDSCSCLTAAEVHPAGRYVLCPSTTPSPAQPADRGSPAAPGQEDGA
The test can be described thus: Phospho-Akt in-cell Western assay (Axl antibody cross-linking, Hela cells). The conditions noted are these: phospho-Akt readout, read-out: IC50, inhibition of Axl kinase. The format is cell-based. Here is the method: The compounds of the invention were tested in the following assay for their ability to inhibit Axl activity.
Phospho-Akt in-Cell Western Assay
Starvation medium: For Axl stimulation: 0.5% FCS (fetal calf serum) in DMEM, plus Axl/Fc (extracellular domain of AXL fused to immunoglobulin Fc region) (R&D, 154-AL) 500 ng/mL.
Axl antibody cross-linking: • 1st: Mouse anti-Axl (R&D, MAB 154). • 2nd: Biotin-SP-conjugated AffiniPure goat anti-mouse IgG (H+L) (Jackson ImmunoResearch #115-065-003).
Primary antibody: Rabbit anti-human Phospho-Akt antibody (Cell Signaling 9271): 1×250 diluted in blocking buffer.
Secondary antibody: HRP (horse radish peroxidase)-conjugated Goat anti-Rabbit secondary, stock solution: Jackson lmmunoResearch (Goat anti-Rabbit HRP, #111-035-144) 1:1 diluted in glycerol, store at −20° C. The working solution: 1×2000 dilution of stock in blocking buffer.
A 96 well TC (tissue culture treated) plate was coated with 10 μg/mL poly-L-Lysine at 37° C. for 30 min, washed twice with PBS, and air-dried for 5 minutes before cells were added. Hela cells were seeded at 10,000 cells/well and the cells were starved in 100 μL starvation medium containing Axl/Fc for 24 hrs.
The cells were pre-treated with test compounds by adding 100 μL of 2× test compound to the starvation medium on the cells. The cells were incubated at 37° C. for 1 hr before stimulation.
The cells were stimulated by Axl-antibody cross-linking as follows: A 5× 1st/2nd Axl antibody mixture was made (37.5 μg/mL 1st/100 μg/mL 2nd) in starvation medium and nutated at 4° C. with thorough mixing for 1-2 hours for clustering. The resulting mix was warmed to 37° C. 50 μL of 5× Axl 1st/2nd of antibody cluster was added to the cells and the cells were incubated at 37° C. for 5 min.
After 5 minutes stimulation, the plate was flicked to remove medium and the plate was tapped onto paper towels. Formaldehyde (4.0% in PBS, 100 μL) was added to fix the cells and the cells were incubated at ambient temperature for 20 min without shaking.
The cells were washed with a plate washer buffer to remove the formaldehyde solution. The plate was flicked to remove excess wash buffer and tapped onto paper towels. Quenching buffer (100 μL) was added to each well and the cells were incubated at ambient temperature for 20 minutes without shaking.
The cells were washed with a plate washer buffer to remove the quenching buffer. Blocking buffer (100 μL) was added and the cells were incubated at ambient temperature for at least an hour with gentle shaking.
The cells were washed with a plate washer buffer and diluted primary antibody (50 μL) was added to each well (blocking buffer was added to the negative control wells instead). The plates were incubated overnight at 4° C. with gentle shaking.
The wash buffer was removed, diluted secondary antibody (100 μL) was added, and the cells were incubated at ambient temperature for 1 hour with gentle shaking. During the incubation, the chemiluminescent reagent was brought to ambient temperature.
The secondary antibody was removed by washing the cells 1× with wash buffer, 1× with PBS by plate washer. The PBS was removed from the plate and the chemiluminescent reagent (80 μL: 40 μL A and 40 μL B) was added to each well at ambient temperature.
The resulting chemiluminescence was read with a Luminomitor within 10 minutes to minimize changes in signal intensity. After reading the chemiluminescence, the cells were washed 1× with wash buffer and 1× with PBS by plate washer. The plate was tapped onto paper towels to remove excess liquid from wells and air-dried at ambient temperature for 5 minutes.
Crystal Violet working solution (60 μL) was added to each well and the cells were incubated at ambient temperature for 30 min. The crystal violet solution was removed, and the wells were rinsed with PBS, then washed 3× with PBS (200 μL) for 5 minutes each.
5% SDS solution (70 μL) was added to each well and the cells were incubated on a shaker for 30 min at ambient temperature. […]

Data on 13 compounds can be found in US7601713B2, “Kinase inhibitors and their uses” (Rigel Pharmaceuticals, Inc., priority 2005, dated 2009).

Where only a bound is given, the exact number is not on record here.

The IC50 is the midpoint of a concentration-inhibition curve.

Consider `COc1cc2nc(Nc3cccc(O)c3)nc(NC3C4C=CC(C4)C3C(N)=O)c2cc1OC` (racemic) [Compound 101, Racemic-(2-exo,3-exo)-N4-(3-aminocarbonylbicyclo[2.2. 1]hept-5-en-2-yl)-6,7-dimethoxy-N2-(3-hydroxy)phenyl-2,4-quinazoline-diamine], for which the IC50 in test [1] was under 5 µM.
In the case of `NC(=O)C1C2C=CC(C2)C1Nc1nc(Nc2cccc(O)c2)nc2ccccc12` (racemic) [Compound 102, Racemic-(2-exo,3-exo)-N4-(3-aminocarbonylbicyclo[2.2. 1]hept-5-en-2-yl)-N2-(3-hydroxy)phenyl-2,4-quinazoline-diamine], the half-maximal inhibitory concentration (IC50) in test [1] is under 5 µM.
With `NC(=O)c1cccc(Nc2nc(NC3C4C=CC(C4)C3C(N)=O)c3nc[nH]c3n2)c1` (racemic) [Compound 122, Racemic-(2-exo,3-exo)-N6-(3-aminocarbonylbicyclo[2.2. 1]hept-5-en-2-yl)-N2-(3-aminocarbonyl)phenyl-1H-purine-2,6-diamine], the IC50 in test [1] is under 5 µM.
The same measure, in the same setting: to `NC(=O)C1C2C=CC(C2)C1Nc1nc(Nc2ccc3c(c2)OCO3)nc2[nH]cnc12` (racemic) [Compound 125, Racemic-(2-exo,3-exo)-N6-(3-aminocarbonylbicyclo[2.2. 1]hept-5-en-2-yl)-N2-(1,3-benzodioxol-5-yl)-1H-purine-2,6-diamine] belongs over 10 µM.
Same read-out and setting: to `Cc1cc2cc(Nc3nc(NC4C5C=CC(C5)C4C(N)=O)c4nc[nH]c4n3)ccc2[nH]1` (racemic) [Compound 150, Racemic-(2-exo,3-exo-)-N6-(3-aminocarbonylbicyclo[2.2. 1]hept-5-en-2-yl)-N2-(2-methyl-1H-indol-5-yl)-1H-purine-2,6-diamine] belongs over 10 µM; to `NC(=O)C1C2CCC(C2)C1Nc1nc(Nc2ccc(N3CCCCC3)cc2)nc2[nH]ccc12` (racemic) [Compound 168, Racemic-(2-exo,3-exo) N4-(3-aminocarbonylbicyclo[2.2. 1]hept-2-yl)-N2-[4-(piperidin-1-yl)phenyl]-1H-pyrrlol[2,3-d]pyrimidine-2,4-diamine], over 10 µM.
For `NC(=O)C1C2C=CC(C2)C1Nc1nc(Nc2cccc(OCc3ccncc3)c2)nc2[nH]ccc12` (racemic) [Compound 223, Racemic-(2-exo,3-exo)-N4-(3-aminocarbonylbicyclo [2.2.1]hept-5-en-2-yl)-N2-[3-(4-pyridinylmethoxy)] phenyl-1H-pyrrolo[2,3-d]pyrimidine-2,4-diamine], the figures for the IC50 in test [1] and in test [2] were over 10 µM and under 10 µM, respectively.
For `NC(=O)C1C2C=CC(C2)C1Nc1nc(Nc2cccc(OCc3ccncc3)c2)nc2[nH]cnc12` (racemic) [Compound 224, Racemic-(2-exo,3-exo-)-N6-(3-aminocarbonylbicyclo [2.2.1]hept-5-en-2-yl)-N2-[3-(4-pyridinylinethoxy)] phenyl-1H-purine-2,6-diamine] the same measures were over 10 µM and under 10 µM.
For `NC(=O)C1C2C=CC(C2)C1Nc1nc(Nc2cccc(OCc3cccnc3)c2)nc2[nH]ccc12` (racemic) [Compound 225, Racemic-(2-exo,3-exo)-N4-(3-aminocarbonylbicyclo [2.2.1]hept-5-en-2-yl)-N2-[3-(3-pyridinylmethoxy)] phenyl-1H-pyrrolo[2,3-d]pyrimidine-2,4-diamine] the same measures were over 10 µM and under 5 µM.
`NC(=O)C1C2C=CC(C2)C1Nc1nc(Nc2cccc(OCc3cccnc3)c2)nc2[nH]cnc12` (racemic) [Compound 226, Racemic-(2-exo,3-exo-)-N6-(3-aminocarbonylbicyclo [2.2.1]hept-5-en-2-yl)-N2-[3-(3-pyridinylmethoxy)phenyl]-1H-purine-2,6-diamine]: the values for the IC50 in test [1] and in test [2] were over 10 µM and under 5 µM, respectively.
For `CONC(=O)C1C2C=CC(C2)C1Nc1nc(Nc2cccc(OC)c2)nc2[nH]ccc12` (racemic) [Compound 233, Racemic-(2-exo,3-exo)-N4-(N-methoxy-3-aminocarbonylbicyclo [2.2.1]hept-5-en-2-yl)-N2-(3-methoxyphenyl)-1H-pyrrolo[2,3-d]pyrimidine-2,4-diamine] the same measures were under 5 µM and under 5 µM.
For `Cc1csc2c(NC3C4C=CC(C4)C3C(N)=O)nc(Nc3ccc(OCCN4CCCC4)cc3)nc12` (racemic) [Compound 240, Racemic-(2-exo,3-exo-)-7-methyl-N4-(3-aminocarbonylbicyclo [2.2.1]hept-5-en-2-yl)-N2-[4-[2-(1-pyrrolidinyl)ethoxy]phenyl]-thieno[3,2-d]pyrimidine-2,4-diamine] the same measures were under 5 µM and under 10 µM.
With `NC(=O)[C@@H]1[C@H](Nc2nc(Nc3ccc4[nH]ccc4c3)nc3[nH]cnc23)[C@H]2C=C[C@@H]1C2` [Compound 147, (1R,2R,3S,4S)-N6-(3-Aminocarbonylbicyclo[2.2. 1]hept-5-en-2-yl)-N2-(1H-indol-5-yl)-1H-purine-2,6-diamine], in test [1], the IC50 was under 5 µM.
